# From ChEMBL document CHEMBL3734705, “Synthesis and in vitro cytotoxicity of novel C-12 substituted-14-deoxy-andrographolide derivatives as potent anti-cancer agents” (2015)
# How the values were obtained:
# Type in all cases: functional
# [1] = Cytotoxicity against human OVCAR5 cells assessed as growth inhibition at 10 uM after 48 hrs by SRB assay; conditions: OVCAR-5, 48 h, read-out: GI
# A498 = assay: Cytotoxicity against human A498 cells after 48 hrs by SRB assay; conditions: A498, 48 h; for CC50: read-out: LC50 (the source's name)
# [2] = Cytotoxicity against human HL-60(TB) cells after 48 hrs by SRB assay; conditions: HL-60, 48 h; for CC50: read-out: LC50 (the source's name)
# [3] = Cytotoxicity against human SNB75 cells after 48 hrs by SRB assay; conditions: SNB-75, 48 h; for CC50: read-out: LC50 (the source's name)
# SK-MEL-2 [4] = assay: Cytotoxicity against human SK-MEL-2 cells assessed as growth level at 10 uM after 48 hrs by SRB assay
# [5] = Cytotoxicity against human MOLT4 cells after 48 hrs by SRB assay; conditions: MOLT-4, 48 h
# [6] = Cytotoxicity against human UACC62 cells after 48 hrs by SRB assay; conditions: UACC-62, 48 h
# NCI-H460 = assay: Cytotoxicity against human NCI-H460 cells after 48 hrs by SRB assay; conditions: NCI-H460, 48 h; for CC50: read-out: LC50 (the source's name)
# SK-MEL-28 = assay: Cytotoxicity against human SK-MEL-28 cells after 48 hrs by SRB assay; conditions: SK-MEL-28, 48 h
# [7] = Cytotoxicity against human SF268 cells after 48 hrs by SRB assay; conditions: SF-268, 48 h
# [8] = Cytotoxicity against human HOP92 cells after 48 hrs by SRB assay; conditions: HOP-92, 48 h
# SK-MEL-2 [9] = assay: Cytotoxicity against human SK-MEL-2 cells after 48 hrs by SRB assay; conditions: SK-MEL-2, 48 h
# [10] = Cytotoxicity against human DU145 cells after 48 hrs by SRB assay; conditions: DU-145, 48 h
# K562 = assay: Cytotoxicity against human K562 cells after 48 hrs by SRB assay; conditions: K562, 48 h
# NCI-H226 = assay: Cytotoxicity against human NCI-H226 cells after 48 hrs by SRB assay; conditions: NCI-H226, 48 h
# [11] = Cytotoxicity against human OVCAR8 cells after 48 hrs by SRB assay; conditions: OVCAR-8, 48 h
# [12] = Cytotoxicity against human UO31 cells after 48 hrs by SRB assay; conditions: UO-31, 48 h
# [13] = Cytotoxicity against human IGROV1 cells after 48 hrs by SRB assay; conditions: IGROV-1, 48 h
# [14] = Cytotoxicity against human HOP62 cells after 48 hrs by SRB assay; conditions: HOP-62, 48 h
# EKVX = assay: Cytotoxicity against human EKVX cells after 48 hrs by SRB assay
# [15] = Cytotoxicity against human OVCAR5 cells after 48 hrs by SRB assay; conditions: OVCAR-5, 48 h
# U-251 = assay: Cytotoxicity against human U251 cells after 48 hrs by SRB assay; conditions: U-251, 48 h
# MCF7 = assay: Cytotoxicity against human MCF7 cells after 48 hrs by SRB assay; conditions: MCF7, 48 h
# [16] = Cytotoxicity against human UACC257 cells after 48 hrs by SRB assay; conditions: UACC-257, 48 h
# SN12C = assay: Cytotoxicity against human SN12C cells after 48 hrs by SRB assay
# [17] = Cytotoxicity against human LOXIMVI cells after 48 hrs by SRB assay; conditions: LOX IMVI
# [18] = Cytotoxicity against human SF295 cells after 48 hrs by SRB assay; conditions: SF-295, 48 h
# [19] = Cytotoxicity against human HCC2998 cells after 48 hrs by SRB assay; conditions: HCC 2998, 48 h
# [20] = Cytotoxicity against human HCT116 cells after 48 hrs by SRB assay; conditions: HCT-116, 48 h
# [21] = Cytotoxicity against human RXF393 cells after 48 hrs by SRB assay; conditions: RXF 393, 48 h
# 786-0 = assay: Cytotoxicity against human 786-0 cells after 48 hrs by SRB assay; conditions: 786-0, 48 h
# NCI-H322M = assay: Cytotoxicity against human NCI-H322M cells after 48 hrs by SRB assay
# [22] = Cytotoxicity against human SW620 cells after 48 hrs by SRB assay; conditions: SW-620, 48 h
# [23] = Cytotoxicity against human PC3 cells after 48 hrs by SRB assay; conditions: PC-3, 48 h
smiles,measurement,setting,value
C=C1CC[C@@H]2[C@](C)(COC(C)=O)[C@H](OC(C)=O)CC[C@@]2(C)[C@@H]1CC(NCCCC)C1=CCOC1=O (mixture of isomers),inhibition of growth at 10 µM,[1],4.96%
C=C1CC[C@@H]2[C@](C)(COC(C)=O)[C@H](OC(C)=O)CC[C@@]2(C)[C@@H]1CC(NCCCCCCCC)C1=CCOC1=O (mixture of isomers),inhibition of growth at 10 µM,[1],6.77%
C=C1CC[C@@H]2[C@](C)(COC(C)=O)[C@H](OC(C)=O)CC[C@@]2(C)[C@@H]1CC(Nc1ccc(S(=O)(=O)NC(C)=O)cc1)C1=CCOC1=O (mixture of isomers),GI50,A498,10.3 µM
same,TGI,A498,20.1 µM
same,CC50,A498,39.3 µM
same,GI50,[2],2450 nM
same,TGI,[2],12 µM
same,CC50,[2],> 75 µM
same,GI50,[3],3080 nM
same,TGI,[3],12.7 µM
same,CC50,[3],30.9 µM
same,Activity,SK-MEL-2 [4],-7.41%
same,GI50,[5],2200 nM
same,LC50,[5],> 75 µM
same,TGI,[5],6.66 µM
same,GI50,[6],2590 nM
same,LC50,[6],32 µM
same,TGI,[6],10.8 µM
same,GI50,NCI-H460,6.72 µM
same,TGI,NCI-H460,17.9 µM
same,CC50,NCI-H460,44.7 µM
same,GI50,SK-MEL-28,3690 nM
same,LC50 (lethal concentration 50%),SK-MEL-28,34.2 µM
same,TGI,SK-MEL-28,13.2 µM
same,GI50,[7],8.78 µM
same,LC50,[7],47.9 µM
same,TGI,[7],20.5 µM
same,GI50,[8],6.5 µM
same,LC50,[8],35.5 µM
same,TGI,[8],15.9 µM
same,GI50,SK-MEL-2 [9],8.68 µM
same,LC50 (concentration causing 50% net cell kill),SK-MEL-2 [9],42.1 µM
same,TGI,SK-MEL-2 [9],19.1 µM
same,GI50,[10],2800 nM
same,LC50 (concentration killing 50% of cells),[10],27 µM
same,TGI,[10],9.74 µM
same,GI50,K562,2580 nM
same,LC50 (50% lethal concentration),K562,> 75 µM
same,TGI,K562,17.6 µM
same,GI50,NCI-H226,1920 nM
same,LC50,NCI-H226,> 75 µM
same,TGI,NCI-H226,4.62 µM
same,GI50,[11],2250 nM
same,LC50,[11],38.6 µM
same,TGI,[11],8.42 µM
same,GI50,[12],3710 nM
same,LC50 (concentration killing 50% of cells),[12],31.7 µM
same,TGI,[12],13.2 µM
same,GI50,[13],5.31 µM
same,TGI,[13],15.4 µM
same,CC50,[13]; read-out: LC50 (the source's name),37.1 µM
same,GI50,[14],10.8 µM
same,LC50,[14],41.1 µM
same,TGI,[14],21.1 µM
same,GI50,EKVX,10.8 µM
same,LC50,EKVX,40.3 µM
same,TGI,EKVX,20.9 µM
same,GI50,[15],4.82 µM
same,LC50 (concentration causing 50% net cell kill),[15],39.5 µM
same,TGI,[15],15.4 µM
same,GI50,U-251,3490 nM
same,LC50 (concentration giving 50% net cell kill),U-251,30.8 µM
same,TGI,U-251,12 µM
same,GI50,MCF7,1920 nM
same,LC50 (50% lethal concentration),MCF7,> 75 µM
same,TGI,MCF7,11.3 µM
same,GI50,[16],6.83 µM
same,LC50 (concentration killing 50% of cells),[16],35.6 µM
same,TGI,[16],16 µM
same,GI50,SN12C,1780 nM
same,LC50 (concentration killing 50% of cells),SN12C,39.2 µM
same,TGI,SN12C,5.4 µM
same,GI50,[17],1250 nM
same,LC50,[17],4.67 µM
same,TGI,[17],2420 nM
same,GI50,[18],11.5 µM
same,LC50,[18],42.2 µM
same,TGI,[18],22 µM
same,GI50,[19],7.51 µM
same,LC50,[19],40.1 µM
same,TGI,[19],17.3 µM
same,GI50,[20],1670 nM
same,LC50 (concentration killing 50% of cells),[20],12.3 µM
same,TGI,[20],3660 nM
same,GI50,[21],1960 nM
same,LC50 (concentration causing 50% net cell kill),[21],18.8 µM
same,TGI,[21],4.69 µM
same,GI50,786-0,2440 nM
same,LC50,786-0,26.2 µM
same,TGI,786-0,7.98 µM
same,GI50,NCI-H322M,10.3 µM
same,LC50,NCI-H322M,40.1 µM
same,TGI,NCI-H322M,20.3 µM
same,GI50,[22],1610 nM
same,LC50,[22],9.63 µM
same,TGI,[22],3.58 µM
same,GI50,[23],6.56 µM
same,LC50,[23],40 µM
same,TGI,[23],16.8 µM
C=C1CC[C@@H]2[C@](C)(COC(C)=O)[C@H](OC(C)=O)CC[C@@]2(C)[C@@H]1CC(Sc1ccccc1)C1=CCOC1=O (mixture of isomers),GI50,A498,2.3 µM
same,TGI,A498,14 µM
same,CC50,A498,59.2 µM
same,GI50,[2],490 nM
same,TGI,[2],2.27 µM
same,CC50,[2],9.76 µM
same,GI50,[3],1300 nM
same,TGI,[3],2.9 µM
same,CC50,[3],6.47 µM
same,Activity,SK-MEL-2 [4],-1.66%
same,GI50,[5],1480 nM
same,LC50,[5],> 100 µM
same,TGI,[5],6.15 µM
same,GI50,[6],1300 nM
same,LC50,[6],8.07 µM
same,TGI,[6],3.24 µM
same,GI50,NCI-H460,2.24 µM
same,TGI,NCI-H460,6.03 µM
same,CC50,NCI-H460,> 100 µM
same,GI50,SK-MEL-28,1620 nM
same,LC50 (lethal concentration 50%),SK-MEL-28,6.68 µM
same,TGI,SK-MEL-28,3.29 µM
same,GI50,[7],1.71 µM
same,LC50,[7],7.39 µM
same,TGI,[7],3.55 µM
same,GI50,[8],2.71 µM
same,LC50,[8],> 100 µM
same,TGI,[8],8.71 µM
same,GI50,SK-MEL-2 [9],2.25 µM
same,LC50 (concentration causing 50% net cell kill),SK-MEL-2 [9],9.36 µM
same,TGI,SK-MEL-2 [9],4.59 µM
same,GI50,[10],1410 nM
same,LC50 (concentration killing 50% of cells),[10],5.33 µM
same,TGI,[10],2.74 µM
same,GI50,K562,690 nM
same,LC50 (50% lethal concentration),K562,45.7 µM
same,TGI,K562,3.69 µM
same,GI50,NCI-H226,2300 nM
same,LC50,NCI-H226,39.4 µM
same,TGI,NCI-H226,5.98 µM
same,GI50,[11],1460 nM
same,LC50,[11],70 µM
same,TGI,[11],4.7 µM
same,GI50,[12],1200 nM
same,LC50 (concentration killing 50% of cells),[12],5.33 µM
same,TGI,[12],2.53 µM
same,GI50,[13],1.87 µM
same,TGI,[13],4.28 µM
same,GI50,[14],2.89 µM
same,LC50,[14],14.7 µM
same,TGI,[14],5.53 µM
same,GI50,EKVX,2.43 µM
same,LC50,EKVX,> 100 µM
same,TGI,EKVX,10.4 µM
same,GI50,[15],2.46 µM
same,LC50 (concentration causing 50% net cell kill),[15],8.89 µM
same,TGI,[15],4.67 µM
same,GI50,U-251,1560 nM
same,LC50 (concentration giving 50% net cell kill),U-251,5.62 µM
same,TGI,U-251,2.96 µM
same,GI50,MCF7,530 nM
same,LC50 (50% lethal concentration),MCF7,7.27 µM
same,TGI,MCF7,2.35 µM
same,GI50,[16],1.91 µM
same,LC50 (concentration killing 50% of cells),[16],7.2 µM
same,TGI,[16],3.71 µM
same,GI50,SN12C,2100 nM
same,LC50 (concentration killing 50% of cells),SN12C,> 100 µM
same,TGI,SN12C,7.07 µM
same,GI50,[17],290 nM
same,LC50,[17],3.97 µM
same,TGI,[17],1190 nM
same,GI50,[18],4.12 µM
same,LC50,[18],> 100 µM
same,TGI,[18],27.3 µM
same,GI50,[19],2.1 µM
same,LC50,[19],7.89 µM
same,TGI,[19],4.08 µM
same,GI50,[20],850 nM
same,LC50 (concentration killing 50% of cells),[20],5.03 µM
same,TGI,[20],2180 nM
same,GI50,[21],1620 nM
same,LC50 (concentration causing 50% net cell kill),[21],6.01 µM
same,TGI,[21],3.12 µM
same,GI50,786-0,1900 nM
same,LC50,786-0,6.96 µM
same,TGI,786-0,3.64 µM
same,GI50,NCI-H322M,2.93 µM
same,LC50,NCI-H322M,> 100 µM
same,TGI,NCI-H322M,10.4 µM
same,GI50,[22],710 nM
same,LC50,[22],> 100 µM
same,TGI,[22],3.64 µM
same,GI50,[23],1.84 µM
same,LC50,[23],> 100 µM
same,TGI,[23],10.1 µM
